Test results published in PubChem BioAssay (NCI).
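Values below derive from 48-hour exposures of cells grown in 96-well plates, with endpoints linearly interpolated between the two concentrations bracketing the appropriate inhibition level. GI50: concentration for 50% inhibition of growth. Definition used: TGI = concentration required for complete inhibition of growth.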

Legend:
Assay in all cases: NCI-60 cell line screen, 48 h
SNB-75 CNS = tested on: SNB-75 CNS
NCI-H23 lung = tested on: NCI-H23 lung
PC-3 prostate = tested on: PC-3 prostate
HS 578T breast = tested on: HS 578T breast
MDA-MB-435 = tested on: MDA-MB-435
RXF 393 renal = tested on: RXF 393 renal
BT-549 breast = tested on: BT-549 breast
ACHN renal = tested on: ACHN renal
MOLT-4 leukemia = tested on: MOLT-4 leukemia
SR leukemia = tested on: SR leukemia
HCT-15 colon = tested on: HCT-15 colon
KM12 colon = tested on: KM12 colon
HOP-62 NSCLC = tested on: HOP-62 NSCLC
COLO 205 colon = tested on: COLO 205 colon
DU-145 prostate = tested on: DU-145 prostate
SW-620 colon = tested on: SW-620 colon
HCT-116 colon = tested on: HCT-116 colon
U251 CNS = tested on: U251 CNS
A549 NSCLC = tested on: A549 NSCLC
SF-295 CNS = tested on: SF-295 CNS
OVCAR-3 ovarian = tested on: OVCAR-3 ovarian
MALME-3M melanoma = tested on: MALME-3M melanoma
T-47D breast = tested on: T-47D breast
M14 melanoma = tested on: M14 melanoma
IGROV1 ovarian = tested on: IGROV1 ovarian
MDA-MB-231 breast = tested on: MDA-MB-231 breast
RPMI-8226 leukemia = tested on: RPMI-8226 leukemia
786-0 renal = tested on: 786-0 renal
SF-539 CNS = tested on: SF-539 CNS
SNB-19 CNS = tested on: SNB-19 CNS
NCI-H522 lung = tested on: NCI-H522 lung
MCF7 breast = tested on: MCF7 breast
SF-268 CNS = tested on: SF-268 CNS
UACC-257 melanoma = tested on: UACC-257 melanoma
UO-31 renal = tested on: UO-31 renal
A498 renal = tested on: A498 renal
SK-MEL-28 melanoma = tested on: SK-MEL-28 melanoma
SN12C renal = tested on: SN12C renal
HOP-92 NSCLC = tested on: HOP-92 NSCLC
HL-60(TB) leukemia = tested on: HL-60(TB) leukemia
SK-MEL-5 melanoma = tested on: SK-MEL-5 melanoma
OVCAR-4 ovarian = tested on: OVCAR-4 ovarian
LOX IMVI melanoma = tested on: LOX IMVI melanoma
MDA-MB-468 breast = tested on: MDA-MB-468 breast
EKVX NSCLC = tested on: EKVX NSCLC
NCI-H226 lung = tested on: NCI-H226 lung
CCRF-CEM leukemia = tested on: CCRF-CEM leukemia
HT29 colon = tested on: HT29 colon
CAKI-1 renal = tested on: CAKI-1 renal
NCI-H460 lung = tested on: NCI-H460 lung
K-562 leukemia = tested on: K-562 leukemia
OVCAR-5 ovarian = tested on: OVCAR-5 ovarian
HCC-2998 colon = tested on: HCC-2998 colon
OVCAR-8 ovarian = tested on: OVCAR-8 ovarian
SK-OV-3 ovarian = tested on: SK-OV-3 ovarian
TK-10 renal = tested on: TK-10 renal
UACC-62 melanoma = tested on: UACC-62 melanoma

Cc1sc(C(NC(=O)OCCn2c([N+](=O)[O-])cnc2C)C(F)(F)Cl)nc1-c1ccc(OC(F)(F)F)cc1 (centres undefined)
GI50 (SNB-75 CNS): 1.43 µM
TGI (SNB-75 CNS): 14.2 µM
GI50 (NCI-H23 lung): 7.46 µM
TGI (NCI-H23 lung): 22.7 µM
GI50 (PC-3 prostate): 2.65 µM
TGI (PC-3 prostate): 14.8 µM
GI50 (HS 578T breast): 2.55 µM
TGI (HS 578T breast): 33 µM
GI50 (MDA-MB-435): 3.87 µM
TGI (MDA-MB-435): 15.5 µM
GI50 (RXF 393 renal): 2.65 µM
TGI (RXF 393 renal): 12.6 µM
GI50 (BT-549 breast): 5.57 µM
TGI (BT-549 breast): 18.6 µM
GI50 (ACHN renal): 3.04 µM
TGI (ACHN renal): 11.3 µM
GI50 (MOLT-4 leukemia): 3.74 µM
TGI (MOLT-4 leukemia): 16.5 µM
GI50 (SR leukemia): 3.58 µM
TGI (SR leukemia): 30.6 µM
GI50 (HCT-15 colon): 3.19 µM
TGI (HCT-15 colon): 12.1 µM
GI50 (KM12 colon): 3.63 µM
TGI (KM12 colon): 14.7 µM
GI50 (HOP-62 NSCLC): 8.7 µM
TGI (HOP-62 NSCLC): 23.9 µM
GI50 (COLO 205 colon): 5.8 µM
TGI (COLO 205 colon): 21.3 µM
GI50 (DU-145 prostate): 4.97 µM
TGI (DU-145 prostate): 17.9 µM
GI50 (SW-620 colon): 7.32 µM
TGI (SW-620 colon): > 100 µM
GI50 (HCT-116 colon): 4.78 µM
TGI (HCT-116 colon): 20.1 µM
GI50 (U251 CNS): 5.38 µM
TGI (U251 CNS): 19.2 µM
GI50 (A549 NSCLC): 4.57 µM
TGI (A549 NSCLC): 20.4 µM
GI50 (SF-295 CNS): 3.26 µM
TGI (SF-295 CNS): 13.7 µM
GI50 (OVCAR-3 ovarian): 3.68 µM
TGI (OVCAR-3 ovarian): 13.3 µM
GI50 (MALME-3M melanoma): 6.79 µM
TGI (MALME-3M melanoma): 21.8 µM
GI50 (T-47D breast): 3.11 µM
TGI (T-47D breast): 12.8 µM
GI50 (M14 melanoma): 4.56 µM
TGI (M14 melanoma): 18.2 µM
GI50 (IGROV1 ovarian): 6.15 µM
TGI (IGROV1 ovarian): 19.5 µM
GI50 (MDA-MB-231 breast): 3.37 µM
TGI (MDA-MB-231 breast): 12.3 µM
GI50 (RPMI-8226 leukemia): 3.41 µM
TGI (RPMI-8226 leukemia): 54.6 µM
GI50 (786-0 renal): 7.35 µM
TGI (786-0 renal): 20.7 µM
GI50 (SF-539 CNS): 9.15 µM
TGI (SF-539 CNS): 21.4 µM
GI50 (SNB-19 CNS): 4.93 µM
TGI (SNB-19 CNS): 17.4 µM
GI50 (NCI-H522 lung): 3.82 µM
TGI (NCI-H522 lung): 15.3 µM
GI50 (MCF7 breast): 2.68 µM
TGI (MCF7 breast): 10.3 µM
GI50 (SF-268 CNS): 3.6 µM
TGI (SF-268 CNS): 16.3 µM
GI50 (UACC-257 melanoma): 7.75 µM
TGI (UACC-257 melanoma): 22.5 µM
GI50 (UO-31 renal): 2.77 µM
TGI (UO-31 renal): 13.5 µM
GI50 (A498 renal): 4.98 µM
TGI (A498 renal): 20.6 µM
GI50 (SK-MEL-28 melanoma): 4.84 µM
TGI (SK-MEL-28 melanoma): 17.1 µM
GI50 (SN12C renal): 4.47 µM
TGI (SN12C renal): 15.9 µM
GI50 (HOP-92 NSCLC): 2.86 µM
TGI (HOP-92 NSCLC): 11.6 µM
GI50 (HL-60(TB) leukemia): 4.06 µM
TGI (HL-60(TB) leukemia): 24.1 µM
GI50 (SK-MEL-5 melanoma): 3.89 µM
TGI (SK-MEL-5 melanoma): 14.7 µM
GI50 (OVCAR-4 ovarian): 3.85 µM
TGI (OVCAR-4 ovarian): 15.7 µM
GI50 (LOX IMVI melanoma): 3.42 µM
TGI (LOX IMVI melanoma): 13.6 µM
GI50 (MDA-MB-468 breast): 2.37 µM
TGI (MDA-MB-468 breast): 8.73 µM
GI50 (EKVX NSCLC): 2.8 µM
TGI (EKVX NSCLC): 12.6 µM
GI50 (NCI-H226 lung): 3.78 µM
TGI (NCI-H226 lung): 16.7 µM
GI50 (CCRF-CEM leukemia): 2.32 µM
TGI (CCRF-CEM leukemia): 16.4 µM
GI50 (HT29 colon): 3.56 µM
TGI (HT29 colon): 13 µM
GI50 (CAKI-1 renal): 2.83 µM
TGI (CAKI-1 renal): 11.8 µM
GI50 (NCI-H460 lung): 3.31 µM
TGI (NCI-H460 lung): > 100 µM
GI50 (K-562 leukemia): 3.62 µM
TGI (K-562 leukemia): > 100 µM
GI50 (OVCAR-5 ovarian): 4.28 µM
TGI (OVCAR-5 ovarian): 17.6 µM
GI50 (HCC-2998 colon): 4.8 µM
TGI (HCC-2998 colon): 17 µM
GI50 (OVCAR-8 ovarian): 7.09 µM
TGI (OVCAR-8 ovarian): 22.6 µM
GI50 (SK-OV-3 ovarian): 12 µM
TGI (SK-OV-3 ovarian): 26.2 µM
GI50 (TK-10 renal): 3.96 µM
TGI (TK-10 renal): 15.8 µM
GI50 (UACC-62 melanoma): 3.53 µM
TGI (UACC-62 melanoma): 15.4 µM
